In patent publication US7759331B2, “Pyridine-containing macroheterococylic compounds as kinase inhibitors” (Janssen Pharmaceutica NV, priority 2006, dated 2010):

Columns and labels:
Assay in all cases: Protein kinase selectivity panel
Format in all cases: biochemical
Details in all cases: 1.0 μM compound, 10 μM ATP
[1] = molecular target: CHK2(h) (Homo sapiens, UniProt O96017)
Method in brief: (§1)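 Kinase, its appropriate substrate, and 10 μM ATP were combined with 1.0 μM compound. Phosphorylation was then allowed to proceed within the time-linear range and measured.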

[2] = molecular target: CK2(h) (Homo sapiens, UniProt P68400)
Method in brief: as §1

[3] = molecular target: T1, EphB2(h) (Homo sapiens, UniProt P29323)
T1 sequence (P29323 19-1055): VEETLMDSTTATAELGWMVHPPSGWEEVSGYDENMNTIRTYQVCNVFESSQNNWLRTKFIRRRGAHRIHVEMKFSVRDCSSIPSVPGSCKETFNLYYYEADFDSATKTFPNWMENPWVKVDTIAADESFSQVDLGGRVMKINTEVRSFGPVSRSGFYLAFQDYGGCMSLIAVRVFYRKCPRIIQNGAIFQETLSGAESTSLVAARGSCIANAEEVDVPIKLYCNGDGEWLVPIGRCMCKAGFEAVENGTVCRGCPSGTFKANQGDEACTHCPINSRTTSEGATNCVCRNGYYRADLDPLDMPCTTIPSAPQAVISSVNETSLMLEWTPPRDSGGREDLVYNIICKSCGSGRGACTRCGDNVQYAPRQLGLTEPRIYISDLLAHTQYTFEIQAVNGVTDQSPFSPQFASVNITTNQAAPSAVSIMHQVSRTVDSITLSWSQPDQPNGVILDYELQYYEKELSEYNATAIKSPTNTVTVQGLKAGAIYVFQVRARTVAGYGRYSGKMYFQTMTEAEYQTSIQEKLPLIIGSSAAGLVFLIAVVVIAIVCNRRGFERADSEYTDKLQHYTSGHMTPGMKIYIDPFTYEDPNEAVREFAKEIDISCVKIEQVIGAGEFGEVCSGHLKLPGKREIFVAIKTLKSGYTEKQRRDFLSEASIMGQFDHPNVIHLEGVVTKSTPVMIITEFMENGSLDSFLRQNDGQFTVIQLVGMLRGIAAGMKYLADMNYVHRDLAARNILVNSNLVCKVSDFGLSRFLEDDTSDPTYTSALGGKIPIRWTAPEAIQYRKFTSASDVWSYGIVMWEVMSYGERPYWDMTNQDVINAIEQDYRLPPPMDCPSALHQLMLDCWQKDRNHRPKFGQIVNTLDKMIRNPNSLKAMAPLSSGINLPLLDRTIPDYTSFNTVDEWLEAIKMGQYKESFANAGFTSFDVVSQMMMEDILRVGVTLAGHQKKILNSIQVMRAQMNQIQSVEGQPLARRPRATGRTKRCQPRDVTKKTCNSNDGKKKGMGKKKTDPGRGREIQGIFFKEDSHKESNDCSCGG
Method in brief: as §1

[4] = molecular target: T2, Flt3(h) (Homo sapiens, UniProt P36888)
T2 sequence (P36888 27-993): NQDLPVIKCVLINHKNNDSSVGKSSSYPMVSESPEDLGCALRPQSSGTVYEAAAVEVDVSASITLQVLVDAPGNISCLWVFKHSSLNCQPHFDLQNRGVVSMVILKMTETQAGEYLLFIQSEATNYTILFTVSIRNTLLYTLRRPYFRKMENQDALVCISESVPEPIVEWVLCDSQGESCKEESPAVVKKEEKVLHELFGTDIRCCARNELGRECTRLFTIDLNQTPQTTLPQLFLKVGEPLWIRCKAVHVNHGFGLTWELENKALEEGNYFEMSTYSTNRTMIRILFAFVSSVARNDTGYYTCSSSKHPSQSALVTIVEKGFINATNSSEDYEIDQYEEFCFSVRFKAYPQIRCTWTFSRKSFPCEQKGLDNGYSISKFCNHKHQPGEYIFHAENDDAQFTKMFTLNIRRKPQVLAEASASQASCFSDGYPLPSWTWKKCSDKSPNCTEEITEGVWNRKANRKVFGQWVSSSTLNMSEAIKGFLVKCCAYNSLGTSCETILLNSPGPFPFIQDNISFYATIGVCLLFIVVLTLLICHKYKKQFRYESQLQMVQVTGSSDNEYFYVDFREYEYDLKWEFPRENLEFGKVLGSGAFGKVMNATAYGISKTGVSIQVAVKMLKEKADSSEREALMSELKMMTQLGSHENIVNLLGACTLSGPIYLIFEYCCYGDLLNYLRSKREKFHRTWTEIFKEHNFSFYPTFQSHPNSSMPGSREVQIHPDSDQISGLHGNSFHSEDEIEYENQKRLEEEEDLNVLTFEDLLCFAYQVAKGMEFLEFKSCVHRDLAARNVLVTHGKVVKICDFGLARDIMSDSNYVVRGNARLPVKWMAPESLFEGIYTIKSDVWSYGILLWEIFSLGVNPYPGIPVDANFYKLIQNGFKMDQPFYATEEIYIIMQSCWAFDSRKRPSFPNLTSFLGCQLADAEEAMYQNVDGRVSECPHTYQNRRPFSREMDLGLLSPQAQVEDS
Method in brief: as §1

[5] = molecular target: IGF-1R(h) (Homo sapiens, UniProt P08069)
Method in brief: as §1

[6] = molecular target: T3, NEK2(h) (Homo sapiens, UniProt P51955)
T3 sequence (P51955 1-445): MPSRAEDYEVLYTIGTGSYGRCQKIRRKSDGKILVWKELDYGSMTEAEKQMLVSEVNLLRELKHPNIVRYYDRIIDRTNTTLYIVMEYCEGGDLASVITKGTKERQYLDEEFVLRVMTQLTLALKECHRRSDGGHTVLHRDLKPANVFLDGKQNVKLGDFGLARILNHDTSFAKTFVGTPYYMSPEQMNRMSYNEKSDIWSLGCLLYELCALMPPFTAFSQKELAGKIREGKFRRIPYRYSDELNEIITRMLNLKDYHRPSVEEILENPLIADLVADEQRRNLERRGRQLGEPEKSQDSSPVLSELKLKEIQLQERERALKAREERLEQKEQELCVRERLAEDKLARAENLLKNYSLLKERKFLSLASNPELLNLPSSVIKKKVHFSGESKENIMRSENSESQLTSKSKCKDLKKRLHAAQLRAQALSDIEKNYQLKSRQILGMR
Method in brief: as §1

[7] = molecular target: TrkB(h) (Homo sapiens, UniProt Q16620)
Method in brief: as §1

Sequence of CK2(h) (P68400 whole entry): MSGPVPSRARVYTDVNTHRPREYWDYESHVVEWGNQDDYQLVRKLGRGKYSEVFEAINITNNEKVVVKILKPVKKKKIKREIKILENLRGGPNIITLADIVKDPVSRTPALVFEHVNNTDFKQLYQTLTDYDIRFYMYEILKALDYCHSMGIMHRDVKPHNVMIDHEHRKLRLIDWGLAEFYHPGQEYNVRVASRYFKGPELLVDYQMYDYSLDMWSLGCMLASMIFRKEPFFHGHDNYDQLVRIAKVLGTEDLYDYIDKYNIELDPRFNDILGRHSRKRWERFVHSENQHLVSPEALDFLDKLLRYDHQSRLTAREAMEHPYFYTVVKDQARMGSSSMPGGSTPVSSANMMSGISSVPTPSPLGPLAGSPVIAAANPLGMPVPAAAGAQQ
Sequence of CK2(h) (P67870 whole entry partner): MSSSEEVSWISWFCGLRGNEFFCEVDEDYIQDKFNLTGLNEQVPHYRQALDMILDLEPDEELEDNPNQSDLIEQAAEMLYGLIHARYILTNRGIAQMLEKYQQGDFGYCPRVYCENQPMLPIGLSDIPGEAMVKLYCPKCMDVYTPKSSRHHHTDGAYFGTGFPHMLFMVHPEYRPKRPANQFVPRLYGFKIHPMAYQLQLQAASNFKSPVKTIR
Sequence of CHK2(h) (O96017 whole entry): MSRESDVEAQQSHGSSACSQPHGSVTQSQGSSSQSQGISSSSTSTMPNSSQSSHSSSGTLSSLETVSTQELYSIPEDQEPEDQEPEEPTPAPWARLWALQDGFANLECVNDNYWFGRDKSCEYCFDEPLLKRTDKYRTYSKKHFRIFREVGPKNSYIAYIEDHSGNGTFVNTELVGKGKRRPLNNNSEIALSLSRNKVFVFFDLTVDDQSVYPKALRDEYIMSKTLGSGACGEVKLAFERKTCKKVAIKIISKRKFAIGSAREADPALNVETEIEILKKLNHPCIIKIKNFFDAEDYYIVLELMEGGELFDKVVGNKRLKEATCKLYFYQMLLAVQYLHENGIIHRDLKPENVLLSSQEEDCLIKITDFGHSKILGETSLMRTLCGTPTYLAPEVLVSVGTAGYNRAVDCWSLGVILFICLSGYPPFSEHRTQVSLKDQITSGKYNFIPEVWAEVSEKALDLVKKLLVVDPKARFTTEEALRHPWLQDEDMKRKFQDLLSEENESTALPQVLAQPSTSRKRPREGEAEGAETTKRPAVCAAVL
Sequence of TrkB(h) (Q16620 32-822): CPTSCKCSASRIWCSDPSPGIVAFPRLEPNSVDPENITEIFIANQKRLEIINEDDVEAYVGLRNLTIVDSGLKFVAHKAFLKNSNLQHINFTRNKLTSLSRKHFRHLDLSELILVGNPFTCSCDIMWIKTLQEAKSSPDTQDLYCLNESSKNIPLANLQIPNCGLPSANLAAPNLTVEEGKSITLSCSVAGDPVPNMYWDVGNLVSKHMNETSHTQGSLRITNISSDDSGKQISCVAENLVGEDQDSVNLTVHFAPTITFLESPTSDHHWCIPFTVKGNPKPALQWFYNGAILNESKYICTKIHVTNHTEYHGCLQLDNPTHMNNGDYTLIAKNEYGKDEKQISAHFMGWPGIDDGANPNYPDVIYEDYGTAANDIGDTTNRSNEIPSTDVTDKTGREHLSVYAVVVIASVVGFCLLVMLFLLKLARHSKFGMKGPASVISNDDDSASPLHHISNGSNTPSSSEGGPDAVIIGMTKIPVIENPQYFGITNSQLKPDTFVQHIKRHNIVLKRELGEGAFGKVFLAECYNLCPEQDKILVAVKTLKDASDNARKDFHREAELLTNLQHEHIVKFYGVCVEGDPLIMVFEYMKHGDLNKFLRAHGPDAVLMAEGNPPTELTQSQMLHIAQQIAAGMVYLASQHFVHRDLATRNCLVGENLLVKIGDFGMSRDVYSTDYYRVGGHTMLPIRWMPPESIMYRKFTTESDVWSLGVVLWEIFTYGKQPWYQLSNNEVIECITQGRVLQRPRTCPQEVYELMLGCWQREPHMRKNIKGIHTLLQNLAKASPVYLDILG
Sequence of IGF-1R(h) (P08069 31-1367): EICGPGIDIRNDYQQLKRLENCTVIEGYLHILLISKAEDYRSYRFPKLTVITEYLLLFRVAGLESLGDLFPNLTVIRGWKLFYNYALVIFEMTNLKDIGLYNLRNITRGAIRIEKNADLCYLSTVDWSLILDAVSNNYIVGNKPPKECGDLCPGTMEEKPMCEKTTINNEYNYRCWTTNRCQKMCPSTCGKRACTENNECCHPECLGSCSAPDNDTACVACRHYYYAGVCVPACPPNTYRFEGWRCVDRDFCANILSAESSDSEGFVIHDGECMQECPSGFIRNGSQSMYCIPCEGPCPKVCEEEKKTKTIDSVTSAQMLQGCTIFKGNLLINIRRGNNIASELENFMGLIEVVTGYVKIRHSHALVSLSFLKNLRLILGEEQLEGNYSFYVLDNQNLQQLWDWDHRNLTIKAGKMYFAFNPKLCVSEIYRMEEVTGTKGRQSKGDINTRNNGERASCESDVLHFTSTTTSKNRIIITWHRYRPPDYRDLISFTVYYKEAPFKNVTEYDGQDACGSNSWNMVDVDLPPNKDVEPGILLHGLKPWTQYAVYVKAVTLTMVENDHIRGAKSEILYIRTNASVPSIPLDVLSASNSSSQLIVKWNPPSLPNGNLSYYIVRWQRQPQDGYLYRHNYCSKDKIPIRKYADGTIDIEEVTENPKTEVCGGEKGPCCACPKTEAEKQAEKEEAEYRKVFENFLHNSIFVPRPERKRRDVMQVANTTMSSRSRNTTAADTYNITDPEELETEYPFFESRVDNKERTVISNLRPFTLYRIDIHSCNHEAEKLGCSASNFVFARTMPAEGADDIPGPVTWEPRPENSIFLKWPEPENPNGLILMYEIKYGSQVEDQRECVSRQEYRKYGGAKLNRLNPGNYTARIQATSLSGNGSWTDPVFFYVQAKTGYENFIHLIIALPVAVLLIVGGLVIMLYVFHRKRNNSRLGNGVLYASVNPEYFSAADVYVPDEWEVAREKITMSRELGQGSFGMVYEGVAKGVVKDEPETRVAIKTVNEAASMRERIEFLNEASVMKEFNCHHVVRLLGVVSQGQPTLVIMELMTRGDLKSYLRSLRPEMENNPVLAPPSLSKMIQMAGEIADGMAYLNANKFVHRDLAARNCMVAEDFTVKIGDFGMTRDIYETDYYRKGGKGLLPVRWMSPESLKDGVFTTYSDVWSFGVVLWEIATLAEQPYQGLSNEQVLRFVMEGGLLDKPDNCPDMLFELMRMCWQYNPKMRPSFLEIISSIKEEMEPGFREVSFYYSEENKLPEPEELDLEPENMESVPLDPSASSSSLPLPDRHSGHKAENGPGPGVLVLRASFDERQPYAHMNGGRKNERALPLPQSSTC

Row | Compound | Activity at Protein Kinase Assays (% of control), CHK2(h) [1] | Activity at Protein Kinase Assays (% of control), CK2(h) [2] | Activity at Protein Kinase Assays (% of control), EphB2(h) [3] | Activity at Protein Kinase Assays (% of control), Flt3(h) [4] | Activity at Protein Kinase Assays (% of control), IGF-1R(h) [5] | Activity at Protein Kinase Assays (% of control), NEK2(h) [6] | Activity at Protein Kinase Assays (% of control), TrkB(h) [7]
1 | O=C1NC(=O)C2=C1c1cn(c3ccccc13)CCCc1ccc(c(N3CCCC3)n1)CCCn1cc2c2ccccc21 [Cpd 7, 31-pyrrolidin-1-yl-5,15,25,30-tetraazaheptacyclo[27.2.2.1^5,12.1^18,25.0^6,11.0^13,17.0^19,24]pentatriaconta-1(31),6,8,10,12(35),13(17),18(34),19,21,23,29,32-dodecaene-14,16-dione] | 91 % of control | 113 % of control | 114 % of control | 85 % of control | 106 % of control | 99 % of control | 106 % of control
2 | CN(C)c1nc2ccc1CCCCn1cc(c3ccccc31)C1=C(C(=O)NC1=O)c1cn(c3ccccc13)CCC2 [Cpd 1, 31-(dimethylamino)-5,15,25,32-tetraazaheptacyclo[28.2.2.1^5,12.1^18,25.0^6,11.0^13,17.0^19,24]hexatriaconta-1(32),6,8,10,12(36),13(17),18(35),19,21,23,30,33-dodecaene-14,16-dione] | 91 % of control | 107 % of control | 125 % of control | 86 % of control | 84 % of control | 104 % of control | –
3 | O=C1NC(=O)C2=C1c1cn(c3ccccc13)CCCc1cc(nc(N3CCCC3)c1)CCCn1cc2c2ccccc21 [Cpd 6, 20-pyrrolidin-1-yl-4,14,19,26-tetraazaheptacyclo[24.6.1.1^7,14.1^18,22.0^2,6.0^8,13.0^27,32]pentatriaconta-1(33),2(6),7(35),8,10,12,18(34),19,21,27,29,31-dodecaene-3,5-dione] | 84 % of control | 108 % of control | 110 % of control | 77 % of control | 42 % of control | 105 % of control | 105 % of control
4 | CN(C)c1cc2cc(n1)CCCn1cc(c3ccccc31)C1=C(C(=O)NC1=O)c1cn(c3ccccc13)CCC2 [Cpd 2, 20-(dimethylamino)-4,14,19,26-tetraazaheptacyclo[24.6.1.1^7,14.1^18,22.0^2,6.0^8,13.0^27,32]pentatriaconta-1(33),2(6),7(35),8,10,12,18(34),19,21,27,29,31-dodecaene-3,5-dione] | 94 % of control | 111 % of control | 114 % of control | 71 % of control | 37 % of control | 102 % of control | 98 % of control
